Reference: ChEMBL document CHEMBL1145498, “A systematic interaction map of validated kinase inhibitors with Ser/Thr kinases” (Proc Natl Acad Sci U S A, 2007)

Molecular target: Calcium/calmodulin-dependent protein kinase type 1D (Homo sapiens) (UniProt Q8IU85)
Sequence (Q8IU85 whole entry, looked up): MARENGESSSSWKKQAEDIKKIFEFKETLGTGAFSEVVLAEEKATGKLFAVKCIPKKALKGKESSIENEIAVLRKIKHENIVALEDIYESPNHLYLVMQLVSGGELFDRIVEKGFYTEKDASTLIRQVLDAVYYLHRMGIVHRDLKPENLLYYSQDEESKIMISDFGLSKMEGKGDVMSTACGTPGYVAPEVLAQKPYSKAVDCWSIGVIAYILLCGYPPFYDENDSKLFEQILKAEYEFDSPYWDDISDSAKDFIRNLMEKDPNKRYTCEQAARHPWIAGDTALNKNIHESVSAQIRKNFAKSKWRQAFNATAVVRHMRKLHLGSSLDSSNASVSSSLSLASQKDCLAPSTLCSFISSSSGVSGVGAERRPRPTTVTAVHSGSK

| SMILES | ΔTm |
| --- | --- |
| CN(C)CCCn1cc(C2=C(c3c[nH]c4ccccc34)C(=O)NC2=O)c2ccccc21 [GF-109203] | 1.1 °C |
| C[S+]([O-])c1ccc(-c2nc(-c3ccc(F)cc3)c(-c3ccncc3)[nH]2)cc1 (stereo not given) [SB-203580] | -0.2 °C |
| O=C1Cc2c([nH]c3ccc(Br)cc23)-c2ccccc2N1 [KENPAULLONE] | 1 °C |

Molecular target: Cyclin-dependent kinase 6 (Homo sapiens) (UniProt Q00534)
Sequence (Q00534 whole entry): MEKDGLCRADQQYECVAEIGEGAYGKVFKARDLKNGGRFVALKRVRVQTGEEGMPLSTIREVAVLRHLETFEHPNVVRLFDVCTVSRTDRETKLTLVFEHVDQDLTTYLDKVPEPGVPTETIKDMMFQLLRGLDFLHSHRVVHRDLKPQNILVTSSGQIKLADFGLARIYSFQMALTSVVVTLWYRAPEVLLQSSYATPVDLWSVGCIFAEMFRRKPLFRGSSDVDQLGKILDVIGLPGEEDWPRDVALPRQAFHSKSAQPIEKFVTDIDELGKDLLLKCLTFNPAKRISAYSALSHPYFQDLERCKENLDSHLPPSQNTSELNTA

| SMILES | ΔTm |
| --- | --- |
| CN(C)CCCn1cc(C2=C(c3c[nH]c4ccccc34)C(=O)NC2=O)c2ccccc21 [GF-109203] | 0.4 °C |
| C[S+]([O-])c1ccc(-c2nc(-c3ccc(F)cc3)c(-c3ccncc3)[nH]2)cc1 (stereo not given) [SB-203580] | -0.1 °C |
| O=C1Cc2c([nH]c3ccc(Br)cc23)-c2ccccc2N1 [KENPAULLONE] | 0.7 °C |

Molecular target: Cyclin-dependent kinase-like 1 (Homo sapiens) (UniProt Q00532)
Sequence (Q00532 whole entry): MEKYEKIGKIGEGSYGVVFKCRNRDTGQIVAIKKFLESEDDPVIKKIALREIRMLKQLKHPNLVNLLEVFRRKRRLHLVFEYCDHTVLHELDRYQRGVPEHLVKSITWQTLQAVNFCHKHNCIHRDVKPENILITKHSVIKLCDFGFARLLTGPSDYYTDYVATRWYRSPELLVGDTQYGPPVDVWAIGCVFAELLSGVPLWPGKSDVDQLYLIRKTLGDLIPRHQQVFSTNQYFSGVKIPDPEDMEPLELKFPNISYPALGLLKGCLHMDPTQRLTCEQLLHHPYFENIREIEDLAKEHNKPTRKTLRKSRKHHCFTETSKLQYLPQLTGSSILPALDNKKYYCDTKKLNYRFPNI

| SMILES | ΔTm |
| --- | --- |
| CN(C)CCCn1cc(C2=C(c3c[nH]c4ccccc34)C(=O)NC2=O)c2ccccc21 [GF-109203] | 0.7 °C |
| C[S+]([O-])c1ccc(-c2nc(-c3ccc(F)cc3)c(-c3ccncc3)[nH]2)cc1 (stereo not given) [SB-203580] | -0.4 °C |
| O=C1Cc2c([nH]c3ccc(Br)cc23)-c2ccccc2N1 [KENPAULLONE] | -0.1 °C |

Molecular target: Serine/threonine-protein kinase Chk2 (Homo sapiens, UniProt O96017)
Sequence (O96017 whole entry): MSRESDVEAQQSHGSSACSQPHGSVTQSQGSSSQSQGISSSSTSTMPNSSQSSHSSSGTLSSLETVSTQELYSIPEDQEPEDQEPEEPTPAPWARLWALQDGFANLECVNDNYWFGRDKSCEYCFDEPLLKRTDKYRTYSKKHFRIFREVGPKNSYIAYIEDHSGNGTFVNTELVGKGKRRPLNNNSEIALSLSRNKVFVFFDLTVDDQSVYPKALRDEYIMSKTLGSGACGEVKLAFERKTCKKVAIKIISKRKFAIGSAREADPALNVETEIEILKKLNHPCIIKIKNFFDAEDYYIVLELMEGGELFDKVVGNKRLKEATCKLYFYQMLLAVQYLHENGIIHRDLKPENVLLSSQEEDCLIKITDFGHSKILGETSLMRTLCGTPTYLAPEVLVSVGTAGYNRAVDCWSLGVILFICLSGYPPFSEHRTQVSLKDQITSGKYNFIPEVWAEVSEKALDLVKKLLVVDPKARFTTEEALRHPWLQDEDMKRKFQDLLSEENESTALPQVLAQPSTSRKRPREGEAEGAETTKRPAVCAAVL

| SMILES | ΔTm |
| --- | --- |
| CN(C)CCCn1cc(C2=C(c3c[nH]c4ccccc34)C(=O)NC2=O)c2ccccc21 [GF-109203] | 7.1 °C |
| C[S+]([O-])c1ccc(-c2nc(-c3ccc(F)cc3)c(-c3ccncc3)[nH]2)cc1 (stereo not given) [SB-203580] | -0.5 °C |
| O=C1Cc2c([nH]c3ccc(Br)cc23)-c2ccccc2N1 [KENPAULLONE] | 6.1 °C |

Molecular target: Dual specificity protein kinase CLK1 (Homo sapiens) (UniProt P49759)
Sequence (P49759 whole entry, looked up): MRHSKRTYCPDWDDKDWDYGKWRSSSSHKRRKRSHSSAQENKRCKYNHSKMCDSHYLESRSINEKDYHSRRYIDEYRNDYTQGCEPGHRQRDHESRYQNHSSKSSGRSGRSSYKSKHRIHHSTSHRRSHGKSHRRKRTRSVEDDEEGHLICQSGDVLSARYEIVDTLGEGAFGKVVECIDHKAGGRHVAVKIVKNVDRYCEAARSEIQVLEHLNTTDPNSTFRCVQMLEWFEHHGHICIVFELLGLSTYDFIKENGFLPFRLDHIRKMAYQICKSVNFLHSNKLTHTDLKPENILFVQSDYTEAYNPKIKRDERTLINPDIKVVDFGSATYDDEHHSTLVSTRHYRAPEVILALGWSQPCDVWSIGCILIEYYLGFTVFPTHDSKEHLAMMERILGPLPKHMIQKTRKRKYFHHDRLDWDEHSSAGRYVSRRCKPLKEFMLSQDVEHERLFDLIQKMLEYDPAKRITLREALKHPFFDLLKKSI

| SMILES | ΔTm |
| --- | --- |
| CN(C)CCCn1cc(C2=C(c3c[nH]c4ccccc34)C(=O)NC2=O)c2ccccc21 [GF-109203] | 6.3 °C |
| C[S+]([O-])c1ccc(-c2nc(-c3ccc(F)cc3)c(-c3ccncc3)[nH]2)cc1 (stereo not given) [SB-203580] | -0.3 °C |
| O=C1Cc2c([nH]c3ccc(Br)cc23)-c2ccccc2N1 [KENPAULLONE] | 1.7 °C |

Molecular target: Glycogen synthase kinase-3 beta (Homo sapiens, UniProt P49841)
Sequence (P49841 whole entry, looked up): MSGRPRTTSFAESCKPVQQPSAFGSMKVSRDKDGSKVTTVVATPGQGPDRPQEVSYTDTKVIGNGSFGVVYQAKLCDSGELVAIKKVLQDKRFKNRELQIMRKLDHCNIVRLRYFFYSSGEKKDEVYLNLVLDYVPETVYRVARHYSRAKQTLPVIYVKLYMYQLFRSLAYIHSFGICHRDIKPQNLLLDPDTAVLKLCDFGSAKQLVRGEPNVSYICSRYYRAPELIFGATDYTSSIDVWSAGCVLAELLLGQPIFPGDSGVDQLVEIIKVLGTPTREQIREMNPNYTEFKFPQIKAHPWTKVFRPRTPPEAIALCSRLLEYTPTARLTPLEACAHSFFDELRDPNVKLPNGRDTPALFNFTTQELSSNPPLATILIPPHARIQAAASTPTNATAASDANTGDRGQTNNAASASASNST

| SMILES | ΔTm |
| --- | --- |
| CN(C)CCCn1cc(C2=C(c3c[nH]c4ccccc34)C(=O)NC2=O)c2ccccc21 [GF-109203] | 8.7 °C |
| C[S+]([O-])c1ccc(-c2nc(-c3ccc(F)cc3)c(-c3ccncc3)[nH]2)cc1 (stereo not given) [SB-203580] | 3.5 °C |
| O=C1Cc2c([nH]c3ccc(Br)cc23)-c2ccccc2N1 [KENPAULLONE] | 10.5 °C |

Molecular target: Mitogen-activated protein kinase 11 (Homo sapiens, UniProt Q15759)
Sequence (Q15759 whole entry): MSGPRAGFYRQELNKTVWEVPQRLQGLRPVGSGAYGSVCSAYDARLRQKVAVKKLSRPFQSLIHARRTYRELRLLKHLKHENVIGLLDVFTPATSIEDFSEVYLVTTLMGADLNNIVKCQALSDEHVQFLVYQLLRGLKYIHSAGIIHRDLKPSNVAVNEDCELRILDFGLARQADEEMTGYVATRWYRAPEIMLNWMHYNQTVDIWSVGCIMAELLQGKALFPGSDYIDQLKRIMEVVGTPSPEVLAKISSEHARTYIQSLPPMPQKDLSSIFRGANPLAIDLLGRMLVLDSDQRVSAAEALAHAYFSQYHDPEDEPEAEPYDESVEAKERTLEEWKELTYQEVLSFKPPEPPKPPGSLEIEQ

| SMILES | ΔTm |
| --- | --- |
| CN(C)CCCn1cc(C2=C(c3c[nH]c4ccccc34)C(=O)NC2=O)c2ccccc21 [GF-109203] | 0.7 °C |
| C[S+]([O-])c1ccc(-c2nc(-c3ccc(F)cc3)c(-c3ccncc3)[nH]2)cc1 (stereo not given) [SB-203580] | 9.6 °C |
| O=C1Cc2c([nH]c3ccc(Br)cc23)-c2ccccc2N1 [KENPAULLONE] | 0.2 °C |

Molecular target: T1, Serine/threonine-protein kinase Nek2 (Homo sapiens) (UniProt P51955)
T1 sequence (whole entry): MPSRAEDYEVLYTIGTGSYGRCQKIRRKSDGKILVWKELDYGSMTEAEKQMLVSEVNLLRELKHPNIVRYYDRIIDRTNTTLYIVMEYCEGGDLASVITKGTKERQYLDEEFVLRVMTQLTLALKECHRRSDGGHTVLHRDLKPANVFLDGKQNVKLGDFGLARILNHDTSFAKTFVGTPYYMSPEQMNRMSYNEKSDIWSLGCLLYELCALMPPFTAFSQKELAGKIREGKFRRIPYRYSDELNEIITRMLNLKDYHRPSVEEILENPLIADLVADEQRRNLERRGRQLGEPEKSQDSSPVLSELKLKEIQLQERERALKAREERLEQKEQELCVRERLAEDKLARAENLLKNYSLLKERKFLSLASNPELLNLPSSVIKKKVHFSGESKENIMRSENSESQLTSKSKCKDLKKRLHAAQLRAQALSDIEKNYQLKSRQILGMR

| SMILES | ΔTm |
| --- | --- |
| CN(C)CCCn1cc(C2=C(c3c[nH]c4ccccc34)C(=O)NC2=O)c2ccccc21 [GF-109203] | 0.7 °C |
| C[S+]([O-])c1ccc(-c2nc(-c3ccc(F)cc3)c(-c3ccncc3)[nH]2)cc1 (stereo not given) [SB-203580] | 0.3 °C |
| O=C1Cc2c([nH]c3ccc(Br)cc23)-c2ccccc2N1 [KENPAULLONE] | 1.3 °C |

Molecular target: Serine/threonine-protein kinase PAK 5 (Homo sapiens) (UniProt Q9P286)
Sequence (Q9P286 whole entry, looked up): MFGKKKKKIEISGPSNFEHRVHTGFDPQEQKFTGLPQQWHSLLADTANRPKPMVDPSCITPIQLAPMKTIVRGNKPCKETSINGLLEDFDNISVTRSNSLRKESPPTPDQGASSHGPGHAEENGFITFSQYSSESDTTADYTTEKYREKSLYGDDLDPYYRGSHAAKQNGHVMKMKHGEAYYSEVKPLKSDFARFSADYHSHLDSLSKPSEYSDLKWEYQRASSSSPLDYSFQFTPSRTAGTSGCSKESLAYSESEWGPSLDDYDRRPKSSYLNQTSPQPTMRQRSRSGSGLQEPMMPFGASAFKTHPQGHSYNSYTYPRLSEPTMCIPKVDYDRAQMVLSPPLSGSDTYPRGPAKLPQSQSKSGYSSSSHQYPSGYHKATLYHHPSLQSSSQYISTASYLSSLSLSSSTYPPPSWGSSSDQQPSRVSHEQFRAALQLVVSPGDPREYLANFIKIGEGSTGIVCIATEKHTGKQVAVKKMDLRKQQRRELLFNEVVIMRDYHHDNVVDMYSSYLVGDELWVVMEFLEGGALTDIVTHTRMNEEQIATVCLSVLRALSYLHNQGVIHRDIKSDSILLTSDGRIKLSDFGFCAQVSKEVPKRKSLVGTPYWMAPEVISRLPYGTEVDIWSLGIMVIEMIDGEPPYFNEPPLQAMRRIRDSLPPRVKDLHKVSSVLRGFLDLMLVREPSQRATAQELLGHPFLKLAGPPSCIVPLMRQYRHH

| SMILES | ΔTm |
| --- | --- |
| CN(C)CCCn1cc(C2=C(c3c[nH]c4ccccc34)C(=O)NC2=O)c2ccccc21 [GF-109203] | 1 °C |
| C[S+]([O-])c1ccc(-c2nc(-c3ccc(F)cc3)c(-c3ccncc3)[nH]2)cc1 (stereo not given) [SB-203580] | -0.1 °C |
| O=C1Cc2c([nH]c3ccc(Br)cc23)-c2ccccc2N1 [KENPAULLONE] | 3.5 °C |

Molecular target: T2, 3-phosphoinositide-dependent protein kinase 1 (Homo sapiens) (UniProt O15530)
T2 sequence (whole entry): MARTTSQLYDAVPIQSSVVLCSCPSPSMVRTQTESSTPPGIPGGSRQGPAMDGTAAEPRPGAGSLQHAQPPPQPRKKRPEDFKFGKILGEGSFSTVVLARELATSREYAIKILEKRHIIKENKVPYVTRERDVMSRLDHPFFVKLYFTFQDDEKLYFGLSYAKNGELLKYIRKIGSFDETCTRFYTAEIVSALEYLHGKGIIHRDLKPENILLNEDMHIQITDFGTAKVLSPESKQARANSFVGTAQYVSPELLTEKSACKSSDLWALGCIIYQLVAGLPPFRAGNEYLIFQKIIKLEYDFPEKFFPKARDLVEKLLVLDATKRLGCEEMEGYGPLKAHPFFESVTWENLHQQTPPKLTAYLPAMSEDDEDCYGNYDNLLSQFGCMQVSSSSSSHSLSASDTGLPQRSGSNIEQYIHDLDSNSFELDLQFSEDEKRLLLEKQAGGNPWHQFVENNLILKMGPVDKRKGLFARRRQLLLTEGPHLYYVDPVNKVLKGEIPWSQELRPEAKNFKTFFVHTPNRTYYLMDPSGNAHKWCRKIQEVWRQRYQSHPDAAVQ

| SMILES | ΔTm |
| --- | --- |
| CN(C)CCCn1cc(C2=C(c3c[nH]c4ccccc34)C(=O)NC2=O)c2ccccc21 [GF-109203] | -0.2 °C |
| C[S+]([O-])c1ccc(-c2nc(-c3ccc(F)cc3)c(-c3ccncc3)[nH]2)cc1 (stereo not given) [SB-203580] | -0.1 °C |
| O=C1Cc2c([nH]c3ccc(Br)cc23)-c2ccccc2N1 [KENPAULLONE] | -0.8 °C |

Molecular target: Serine/threonine-protein kinase pim-1 (Homo sapiens) (UniProt P11309)
Sequence (P11309 whole entry, looked up): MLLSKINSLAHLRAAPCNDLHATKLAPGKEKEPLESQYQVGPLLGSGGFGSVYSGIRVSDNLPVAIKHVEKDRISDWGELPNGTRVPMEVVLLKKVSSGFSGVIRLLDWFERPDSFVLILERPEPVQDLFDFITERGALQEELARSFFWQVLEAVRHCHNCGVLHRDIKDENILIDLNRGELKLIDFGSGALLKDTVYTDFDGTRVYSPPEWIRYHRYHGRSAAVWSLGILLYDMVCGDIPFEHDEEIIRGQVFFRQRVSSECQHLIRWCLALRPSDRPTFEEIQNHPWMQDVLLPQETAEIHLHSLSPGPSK

| SMILES | ΔTm |
| --- | --- |
| C[S+]([O-])c1ccc(-c2nc(-c3ccc(F)cc3)c(-c3ccncc3)[nH]2)cc1 (stereo not given) [SB-203580] | -2.1 °C |
| O=C1Cc2c([nH]c3ccc(Br)cc23)-c2ccccc2N1 [KENPAULLONE] | 2.6 °C |

Molecular target: T3, Serine/threonine-protein kinase PLK4 (Homo sapiens) (UniProt O00444)
T3 sequence (whole entry): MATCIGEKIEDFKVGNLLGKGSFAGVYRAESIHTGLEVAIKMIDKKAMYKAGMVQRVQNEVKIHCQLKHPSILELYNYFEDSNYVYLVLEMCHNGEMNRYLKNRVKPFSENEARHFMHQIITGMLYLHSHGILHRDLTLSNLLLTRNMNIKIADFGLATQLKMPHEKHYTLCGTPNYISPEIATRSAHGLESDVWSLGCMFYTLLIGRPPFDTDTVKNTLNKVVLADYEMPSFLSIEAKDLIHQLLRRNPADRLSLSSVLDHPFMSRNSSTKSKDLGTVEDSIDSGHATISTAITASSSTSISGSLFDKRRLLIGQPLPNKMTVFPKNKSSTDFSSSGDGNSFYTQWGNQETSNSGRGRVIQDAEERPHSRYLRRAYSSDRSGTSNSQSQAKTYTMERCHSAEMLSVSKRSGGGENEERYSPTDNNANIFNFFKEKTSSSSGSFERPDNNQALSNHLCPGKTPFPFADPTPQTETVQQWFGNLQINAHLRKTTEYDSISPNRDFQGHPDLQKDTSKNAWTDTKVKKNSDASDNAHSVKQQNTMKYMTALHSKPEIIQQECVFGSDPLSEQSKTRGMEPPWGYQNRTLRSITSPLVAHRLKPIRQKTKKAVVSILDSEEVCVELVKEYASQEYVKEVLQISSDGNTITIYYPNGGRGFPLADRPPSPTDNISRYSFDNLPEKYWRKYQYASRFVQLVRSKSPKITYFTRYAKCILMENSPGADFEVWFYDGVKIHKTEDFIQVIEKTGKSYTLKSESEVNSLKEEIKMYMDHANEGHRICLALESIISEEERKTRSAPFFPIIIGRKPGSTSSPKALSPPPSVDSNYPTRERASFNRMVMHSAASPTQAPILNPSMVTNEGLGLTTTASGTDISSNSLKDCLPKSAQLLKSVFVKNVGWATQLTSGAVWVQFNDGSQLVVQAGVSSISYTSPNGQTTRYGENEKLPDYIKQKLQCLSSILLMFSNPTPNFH

| SMILES | ΔTm |
| --- | --- |
| CN(C)CCCn1cc(C2=C(c3c[nH]c4ccccc34)C(=O)NC2=O)c2ccccc21 [GF-109203] | 3 °C |
| C[S+]([O-])c1ccc(-c2nc(-c3ccc(F)cc3)c(-c3ccncc3)[nH]2)cc1 (stereo not given) [SB-203580] | 0.7 °C |
| O=C1Cc2c([nH]c3ccc(Br)cc23)-c2ccccc2N1 [KENPAULLONE] | 7.1 °C |

Molecular target: Ribosomal protein S6 kinase alpha-3 (Homo sapiens) (UniProt P51812)

| SMILES | ΔTm |
| --- | --- |
| CN(C)CCCn1cc(C2=C(c3c[nH]c4ccccc34)C(=O)NC2=O)c2ccccc21 [GF-109203] | 0.8 °C |
| C[S+]([O-])c1ccc(-c2nc(-c3ccc(F)cc3)c(-c3ccncc3)[nH]2)cc1 (stereo not given) [SB-203580] | -0.2 °C |

Molecular target: STE20-like serine/threonine-protein kinase (Homo sapiens) (UniProt Q9H2G2)

| SMILES | ΔTm |
| --- | --- |
| CN(C)CCCn1cc(C2=C(c3c[nH]c4ccccc34)C(=O)NC2=O)c2ccccc21 [GF-109203] | 6.8 °C |
| O=C1Cc2c([nH]c3ccc(Br)cc23)-c2ccccc2N1 [KENPAULLONE] | 1.7 °C |

Molecular target: Serine/threonine-protein kinase 26 (Homo sapiens) (UniProt Q9P289)
Sequence (Q9P289 2-416 limits assumed): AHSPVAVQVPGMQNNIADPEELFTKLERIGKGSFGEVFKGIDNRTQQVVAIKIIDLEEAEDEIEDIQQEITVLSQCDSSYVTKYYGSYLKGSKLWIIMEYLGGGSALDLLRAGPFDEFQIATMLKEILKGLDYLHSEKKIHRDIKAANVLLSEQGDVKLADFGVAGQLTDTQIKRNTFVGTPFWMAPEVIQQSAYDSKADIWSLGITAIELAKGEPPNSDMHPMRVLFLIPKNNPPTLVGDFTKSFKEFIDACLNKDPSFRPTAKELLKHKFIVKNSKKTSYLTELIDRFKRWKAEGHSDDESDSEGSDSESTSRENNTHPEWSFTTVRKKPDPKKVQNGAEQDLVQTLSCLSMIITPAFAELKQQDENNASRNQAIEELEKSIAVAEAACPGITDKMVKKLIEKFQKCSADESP

| SMILES | ΔTm |
| --- | --- |
| CN(C)CCCn1cc(C2=C(c3c[nH]c4ccccc34)C(=O)NC2=O)c2ccccc21 [GF-109203] | 1.7 °C |
| C[S+]([O-])c1ccc(-c2nc(-c3ccc(F)cc3)c(-c3ccncc3)[nH]2)cc1 (stereo not given) [SB-203580] | -0.4 °C |
| O=C1Cc2c([nH]c3ccc(Br)cc23)-c2ccccc2N1 [KENPAULLONE] | 1.5 °C |

Molecular target: Serine/threonine-protein kinase 25 (Homo sapiens) (UniProt O00506)
Sequence (O00506 whole entry, looked up): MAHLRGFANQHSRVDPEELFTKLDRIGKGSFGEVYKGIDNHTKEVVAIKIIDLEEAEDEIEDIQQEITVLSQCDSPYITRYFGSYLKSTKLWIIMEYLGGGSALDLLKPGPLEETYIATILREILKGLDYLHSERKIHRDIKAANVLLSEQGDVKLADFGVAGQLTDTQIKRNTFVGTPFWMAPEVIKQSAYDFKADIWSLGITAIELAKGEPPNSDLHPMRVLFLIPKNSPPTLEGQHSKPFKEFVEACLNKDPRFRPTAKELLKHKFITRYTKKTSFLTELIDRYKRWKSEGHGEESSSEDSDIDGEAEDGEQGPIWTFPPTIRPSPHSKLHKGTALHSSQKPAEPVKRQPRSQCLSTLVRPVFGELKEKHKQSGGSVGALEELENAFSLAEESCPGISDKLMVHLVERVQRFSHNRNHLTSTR

| SMILES | ΔTm |
| --- | --- |
| CN(C)CCCn1cc(C2=C(c3c[nH]c4ccccc34)C(=O)NC2=O)c2ccccc21 [GF-109203] | 2.7 °C |
| C[S+]([O-])c1ccc(-c2nc(-c3ccc(F)cc3)c(-c3ccncc3)[nH]2)cc1 (stereo not given) [SB-203580] | 0.9 °C |
| O=C1Cc2c([nH]c3ccc(Br)cc23)-c2ccccc2N1 [KENPAULLONE] | 2.7 °C |
